Entries after “also recorded” stand apart in the source; their conditions may differ.
How the values were obtained:
[1] = system: patients with chronic thromboembolism and displaying secondary PHT; experiment: Arterial oxygen partial pressure in patients with chronic thromboembolism; format: in vivo, human; conditions: 7 patients; for effect on arterial oxygen partial pressure: FIG. 4; for arterial oxygen partial pressure (PaO2), improvement: NO 20 ppm inhaled, sildenafil 50 mg oral
Method: (§1) FIG. 4: Result of measurement of the arterial oxygen partial pressure (PaO2) on 7 patients with chronic thromboembolism and displaying secondary PHT (pulmonary hypertension). The arterial oxygen partial pressure was improved by NO (inhaled) [20 ppm] and sildenafil (oral) [50 mg] by respectively 1.8% and 7.6%, whereas the oxygen saturation fell by 13% after administration of PGI (intravenous). In the same experiment, the vascular resistance was measured and determined as delta PVR by a right cardiac catheterization. The vascular resistance was reduced respectively by 25%, 19% and 21% after administration of PGI (intravenous) [6 ng/kg bodyweight/min], NO (inhaled) [20 ppm] and sildenafil (oral) [50 mg].
(§2) 7 patients with CTEPH underwent a Swan-Ganz catheter investigation with measurement of the ventilation/perfusion (V/Q) distribution (using the multiple inert gas elimination technique (MIGET)). After determination of the baseline parameters (haemodynamics and gas exchange), all the patients initially inhaled 20 ppm NO, followed by a second baseline period (10-15 min), and then PGI was infused (6 ng/kg bodyweight/min), again followed by a second baseline period (10-15 min) and then an oral dose of 50 mg of sildenafil was given (120-150 min follow-up). 3 of the 7 patients were controlled by continuous nasal oxygen therapy in order to reach an arterial oxygenation of >88%. The following parameters were measured under baseline conditions: mean pulmonary arterial pressure (mPAP) 52.1 +/−3.3 mmHg, cardiac index (CI) 2.2+/−0.1 |* min^−1*m^−2, pulmonary vascular resistance index (PVRI) 1703.8+/−129.5 dyn*s*cm^−6*m^2, arterial pO2 72.5+/−3.3 mmHg and mixed venous oxygen saturation (SvO2) of 63.4+/−2.2%.

[2] = system: patients with chronic thromboembolism and displaying secondary PHT; experiment: Low V/Q perfusion by MIGET in patients with chronic thromboembolism; format: in vivo, human; conditions: for effect on low-V/Q perfusion / ventilation/perfusion distribution (words): 7 patients with CTEPH; for low V/Q perfusion (MIGET), level reached: 7 patients, control 3.25%, PGI i.v. 6 ng/kg/min, NO 20 ppm inhaled, sildenafil 50 mg oral
Method: FIG. 3: Result of determination of the low V/Q perfusion measured by the inert gas exchange method (MIGET) [Wagner et al. J Appl Physiol. 1974;36:588-99] from 7 patients with chronic thromboembolism and displaying secondary PHT (pulmonary hypertension). Compared with the control group (3.25%), the shunting was increased with PGI (i.v.) [6 ng/kg bodyweight/min] to 19%, with NO (inhaled) [20 ppm] to 5.3% and with sildenafil (oral) [50 mg] to 5.3%.
as §2

[3] = system: patients with chronic thromboembolism and displaying secondary PHT; experiment: Pulmonary vascular resistance (delta PVR, right cardiac catheterization) in patients with chronic thromboembolism; format: in vivo, human; conditions: for effect on pulmonary vascular resistance: 7 patients with CTEPH; for vascular resistance (PVR), reduction: 7 patients, PGI i.v. 6 ng/kg/min, NO 20 ppm inhaled, sildenafil 50 mg oral
Method: as §1, §2

[4] = system: bleomycin-induced pulmonary fibrosis in rabbits; experiment: Oxygenation index (PaO2/FiO2) in bleomycin-induced pulmonary fibrosis; format: in vivo, rabbit; conditions: for effect on O2 saturation: FIG. 2; for oxygenation index (PaO2/FiO2), raised compared with the control (190): NO 20 ppm inhaled, sildenafil 1 mg/kg oral
Method: FIG. 2: Result of determination of the oxygenation index (arterial oxygen partial pressure/fraction of inspired oxygen [PaO2/FiO2]) measured in the model of bleomycin-induced pulmonary fibrosis in rabbits. Whereas systemic PGI (6 ng/kg body weight/min] (PGI, prostacyclin) reduces the oxygenation index by 60% compared with the control (190), the oxygenation index was markedly raised by inhaled NO [20 ppm] by 28% and sildenafil (oral) [1 mg/kg body weight] by 31%.
Healthy rabbits of both sexes were pretreated orally with a gyrase inhibitor (Baytril®) for one week. Ten animals pretreated in this way were not treated with bleomyin and served as control, and, on the day of exposure, the others were anaesthetized with a Ketanest®/Rompun® mixture, intubated intratracheally and ventilated mechanically. An ultrasonic nebulizer (MMAD 2.5 μm) was used to administer by inhalation exactly 1.8 U/kg of bodyweight of bleomycin under volume-controlled ventilation. After 4, 8, 16, 24, 32 and 64 days (in each case n≧5) post exposure, the animals were again anaesthetized, provided with an arterial access (right carotid artery) and underwent bodyweight-adapted ventilation via a tracheostomy in a volume-controlled method. The arterial pO2 and pCO2, and the static compliance of the lung were measured (by recording the intrathoracic pressure and with slow inflation/deflation manoeuvres). Subsequently, the lungs of these animals were dissected and perfused with a Krebs Hensefeit buffer. Under these conditions, the capillary filtraton coefficient (cfc) was then found from the weight gain of the organ after increasing the pulmonary venous pressure by 7.5 mmHg, and the peak ventilation pressure was found. After completion of these measurements, the left main bronchus was ligated in the end-inspiratory position and a bronchoalveolar lavage (BAL) was performed on the right lung. Subsequently, the large vessels and airways of the right lung were dissected off and the organ was homogenized. The left lung was perfusion-fixed with 4% formalin solution while maintaining a pressure gradient of 25 cm H2O and was then stored in 4% formalin until embedded. Firstly, the cells were removed from the BAL, counted and differentiated via a Papenheim stain. The cell-free BAL supernatant was then aliquoted and submitted to further analysis of the surfactant and coagulation properties and a determination of the matrix metallo proteinases (MMPs) and their inhibitors (TIMPs) and of soluble collagen. Bronchoalveolar deposition of 1.8 U/kg of bodyweight of bleomycin led initially to development of an ARDS-like event, with a massive restriction of gas exchange (paO2/FiO2 of >500 mmHg in the controls reduced to ˜110 mmHg on day 4), ground-glass opacities over all sections of the lung in the HRCT and an increase of about 5-fold in the capillary filtration coefficient (cfc). In the later phase of bleomycin-induced lung damage there was then development of pronounced fibrosis which could be confirmed on the basis of the increase in soluble collagen in the BAL and the hydroxyproline in the tissue, on the basis of the histological specimens and of the HRCT findings. […] Consistent with this, a pronounced increase in the extracellular matrix and an alveolar and also interstitial ingress of fibroblasts was observable in the histological sections. Besides the homogeneously distributed zones of fibrosis there were also thin hyperdistended sections of lung with a honeycomb appearance.
Systemically administered PGI (vasodilatator) increased the shunting to about 30%. […] The data for O2 saturation (FIG. 2) correspond directly.

[5] = system: patients with ILD displaying secondary PHT; experiment: Pulmonary vascular resistance in patients with ILD; format: in vivo, human; conditions: 7 patients with ILD
Method: as §2, with “ILD” for “CTEPH”, “5” for “3”, “39.6+/−2.8 mmHg and” for “52.1 +/−3.3 mmHg, cardiac index (CI) 2.2+/−0.1 |* min^−1*m^−2,”, “1255+/−215 dyn*s*cm−5*m^2.” for “1703.8+/−129.5 dyn*s*cm^−6*m^2, arterial pO2 72.5+/−3.3 mmHg and mixed venous oxygen saturation (SvO2) of 63.4+/−2.2%.”
By contrast, PGI (intravenous) increased the lung areas from 7% to almost 20% and thus caused a deterioration in matching (FIG. 5). Corresponding to the matching, PGI reduced the O2 saturation by 12%, whereas NO brought about an improvement of 5% and sildenafil one of 15% (FIG. 6).

Row | Compound | effect on arterial oxygen partial pressure [1] | arterial oxygen partial pressure (PaO2), improvement [1] | effect on low-V/Q perfusion / ventilation/perfusion distribution (words) [2] | low V/Q perfusion (MIGET), level reached [2] | effect on pulmonary vascular resistance [3] | vascular resistance (PVR), reduction [3] | effect on O2 saturation [4] | oxygenation index (PaO2/FiO2), raised compared with the control (190) [4] | effect on pulmonary vascular resistance [5] | pulmonary vascular resistance (PVR), reduction [5] | arterial oxygen partial pressure / oxygen saturation, decrease ([1]; PGI intravenous 6 ng/kg/min) | oxygenation index (PaO2/FiO2), reduction compared with the control (190) ([4]; PGI 6 ng/kg/min systemic) | effect on low-V/Q perfusion / ventilation/perfusion distribution (words) ([2]; listed as Sildenafil)
1 | [N]=O [NO, nitric oxide] | not changed | 1.8% | virtually unchanged; also recorded: increased slightly | 5.3% | marked reduction | 19% | marked increases in O2 saturation | 28% | marked reduction | about 25% | – | – | –
2 | CCCCC[C@H](O)/C=C/[C@@H]1[C@H]2C/C(=C/CCCC(=O)O)O[C@H]2C[C@H]1O [PGI, prostacyclin] | – | – | greatly increased | 19% | marked reduction | 25% | reduced O2 saturation | – | marked reduction | about 25% | 13% | 60% | –
3 | CCCc1nn(C)c2c(=O)[nH]c(-c3cc(S(=O)(=O)N4CCN(C)CC4)ccc3OCC)nc12 [sildenafil, 5-[2-ethoxy-5-(4-methyl-1-piperazinyl-sulphonyl)phenyl]-1-methyl-3-n-propyl-1,6-dihydro-7H-pyrazolo[4,3-d]pyrimidin-7-one] | increased | 7.6% | virtually unchanged | 5.3% | marked reduction | 21% | marked increases in O2 saturation | 31% | marked reduction | about 25% | – | – | same effect as NO (inhaled)

From US20050107394A1, “Novel use of selective pde5 inhibitors” (priority 2001, published 2005)
